Results published in patent US7629354B2, “Use of phanquinone for the treatment of Alzheimer's disease” (Prana Biotechnology Limited, priority 1997, dated 2009).

Assays:
[1] = Solubility in water / aqueous solutions; type: physicochemical
[2] = 1H NMR study of the interaction of vitamin B12 with clioquinol glucuronide; type: binding; settings: 2.6 mM vitamin B12 and 10 mM clioquinol glucuronide, buffered water pH=6.5, 20° C.
Procedure: Three different solutions were prepared and their 1H NMR spectra were recorded in a DRX 400 MHz spectrophotometer at 20° C. Solution a) contained free vitamin B12 (hydroxycobalamin) in a concentration of 2.6 mM.
In FIG. 5 the spectra of the three solutions are presented for the aromatic region (5.5-9.8 ppm). The differences are quite small but obvious in the expansion shown of FIG. 6 and FIG. 7, respectively.

[3] = in vivo; cited from earlier work
PC12 cells = assay: MTT reduction (cell redox activity) in PC12 cells exposed to Aβ(25-35); type: cell-based, Rat
Procedure: Aβ(25-35) was delivered by Bachem (CH) or Sigma (USA) and dissolved in phosphate buffered saline (PBS) at pH 7.4, 2 hours prior to application.
Rat PC12 pheochromocytoma cells were grown in Dulbecco's modified Eagle's medium (DMEM) containing 1% penicillin-streptomycin, 5% fetal calf serum and 10% horse serum in humidified incubator with 5% CO2.
PC12 cells were plated on 96-wells microtiter plates in 100 μl of the appropriate medium. After 24 hours the indicated concentrations of Aβ(25-35) peptide was added alone or together with phanquinone in the designated concentrations. Incubation continued for 24 hours. Following incubation, MTT reduction was measured using a commercially available assay according to the manufacturer's (Boehringer Mannheim) instructions. Assay values obtained by vehicle alone were defined as 100%.
MTT is a substrate for intracellular and plasma membrane oxidoreductases and has been widely used to measure reductions of cell redox activity.
To test the effect of phanquinone on Aβ(25-35) induced toxicity in PC12 cells, PC12 cells were exposed to Aβ(25-35) peptide concentrations ranging from 0 to 10 μM. In the absence of phanquinone (i.e. only vehicle added) Aβ(25-35) produced a dose-dependent inhibition of MTT reduction (FIG. 1, filled-in circles).
In this study the same materials and methods as in example 1 were used, except that the PC12 cells were exposed to a fixed Aβ concentration of 1 μM, whereas the concentration of phanquinone was varied between 0 and 10 μg/ml. […] This inhibition was maintained in the presence of up to 0.1 μg phanquinone per ml.

Aβ(1-40) [4] = molecular target: T1, Aβ(1-40) (Homo sapiens, UniProt P05067); assay: Thioflavin T fluorometric assay of Cu2+-induced Aβ(1-40) aggregation; type: biochemical; settings: test compound 10 μg/ml; Aβ(1-40) 100 μM; 24 hours, room temperature
T1 construct: A 5 mg/ml stock solution of Aβ(1-40) (delivered from Bachem (CH)) was freshly prepared; purchased Bachem (CH)
Procedure: (§1) A 5 mg/ml stock solution of Aβ(1-40) (delivered from Bachem (CH)) was freshly prepared before each experiment by dissolving the lyophilised peptide in 0.01 M HCl, followed by subsequent dilution 1:1 with 0.01 M NaOH to yield a neutral pH. Aliquot of Aβ(1-40) were diluted in PBS (pH 7.4) to 100 μM and incubated at a total volume of 30 μl for 24 hours at room temperature. For co-incubation experiments, the indicated concentrations of metal ions and/or aliquot of test compounds were added. The test compounds were added to a final […] concentration of 10 μg/ml.
(§2) The amyloid formation was quantified by a thioflavin T fluorometric assay. Thioflavin binds specifically to amyloid and this introduces a shift in its emission spectrum and a fluorescent signal proportional to the amount of amyloid is formed. After incubation, Aβ(1-40) peptides were added to PBS (pH 6.0) and 3 μM thioflavin T in a final volume of 1 ml. Fluorescence was monitored at excitation 454 nm and emission 482 nm using a Fluoroscan II fluorometer (Molecular devices, UK). A time scan of fluorescence was performed and three values after the decay reached a plateau (around 5 minutes) were averaged after subtracting the background fluorescence of 3 μM thioflavin T. For co-incubation experiments, fluorescence of test compound alone was determined. Samples were run in triplicate. […]

Aβ(1-40) [5] = molecular target: T1, Aβ(1-40); assay: Thioflavin T fluorometric assay of Zn2+-induced Aβ(1-40) aggregation; type: biochemical; settings: test compound 10 μg/ml; Aβ(1-40) 100 μM; 24 hours, room temperature
Procedure: as §1, §2

T1 sequence (P05067 672-711): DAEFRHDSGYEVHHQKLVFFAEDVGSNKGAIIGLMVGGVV

## COC(=O)C1OC(Oc2c(I)cc(Cl)c3cccnc23)C(OC(C)=O)C(OC(C)=O)C1OC(C)=O (centres unmarked) [clioquinol glucuronide, methyl(5-chloro-7-iodo-quinolyl-2′,3′,4′-tri-O-acetyl-glucopyranosid)uronate]
[1]
  solubility in water: soluble in water
[2]
  interaction with vitamin B12 (shift of 1H NMR resonances): interaction between clioquinol glucuronide and vitamin B12, possibly of a hydrophobic nature

## O=C1C(=O)c2ncccc2-c2cccnc21 [phanquinone, 4,7-phenanthroline-5,6-dione]
[3]
  adverse side effects: no adverse side effects have been detected
PC12 cells; 1 μM Aβ(25-35), 1 μg/ml phanquinone or more
  redox activity of Aβ(25-35)-treated cells: normal redox activity is restored
PC12 cells; 10 μg phanquinone per ml, Aβ as high as 1 μM
  toxic effect of Aβ: completely counteracted
PC12 cells; 10 μg phanquinone per ml, Aβ(25-35) 0 to 10 μM
  toxic effect of Aβ(25-35): virtually abolished
PC12 cells; Aβ 1 μM, phanquinone 1 μg/ml and above
  toxic effect of Aβ(25-35): completely abolished
PC12 cells; Aβ 1 μM, phanquinone above 0.1 μg/ml
  toxic effect of Aβ(25-35): drastic reduced toxic effect
PC12 cells; Aβ 1 μM, up to 0.1 μg phanquinone per ml
  inhibition of MTT reduction by Aβ(25-35): maintained
Aβ(1-40) [4]
  reduction of Cu2+-induced aggregation of Aβ(1-40): 50-60%

## Oc1c(I)cc(Cl)c2cccnc12 [clioquinol, 5-chloro-7-iodo-8-hydroxyquinoline]
[3]
  adverse side effects: causes subacute myelo-optico-neuropathy (SMON)
[1]
  solubility in water: cannot be dissolved in aqueous solutions
Aβ(1-40) [5]
  reduction of Zn2+-induced aggregation of Aβ(1-40): more than 60%
Aβ(1-40) [4]
  reduction of Cu2+-induced aggregation of Aβ(1-40): approximately 30%

## Aβ(25-35): peptide sequence between amino acid residues 25 and 35 of Aβ, delivered by Bachem or Sigma (GSNKGAIIGLM; Amyloid-beta protein 42; UniProt P05067 696-706, looked up, fragment)
PC12 cells; 1 μM Aβ(25-35)
  redox activity of cells, of the normal level: 60%
PC12 cells; Aβ(25-35) 1 μM, absence of phanquinone
  inhibition of MTT reduction: approximately 40%
PC12 cells; Aβ(25-35) 10 μM, absence of phanquinone
  inhibition of MTT reduction: approximately 50%
PC12 cells; Aβ(25-35) as low as 0.01 μM
  inhibition of MTT reduction: significant reduction
PC12 cells; Aβ(25-35) on or above 0.1 μM, absence of phanquinone
  MTT reduction reduced to a maximum level: about 50%

## CCN(CC)C(=S)SSC(=S)N(CC)CC [Disulfiram]
[3]
  adverse side effects: severe adverse reactions
